The values that follow come from patent publication US7514408B1, “β-secretase enzyme compositions and methods” (Elan Pharmaceuticals, Inc., priority 1999, dated 2009).

Numbered stars: 1 amine (or outer) side, 2 acyl side, 3 side chain; on linkers, the order of the positions; unused ones are H or OH. Square brackets hold non-standard residues; d marks the D form. Peptide text beside a SMILES is read from it. Sta = CC(C)C[C@H](N)[C@@H](O)CC(=O)O; X1 = CC(C)CC(N[*:1])C(O)C(=O)[*:2]

The target in the assay is β-secretase (Homo sapiens, UniProt P56817). The assay is described as follows: MBP C125 assay of peptide inhibitors. In kind it is biochemical. The procedure:
The substrates for these studies were synthesized using solid support sequential synthesis as described in Example 7. Assays of the inhibitory activity were performed in the MBP C125 assays described in Example 4 and IC50 values were generated for the heptameric inhibitors are reported in Table 9. Preferred inhibitors of the invention are those compounds in Group III, particularly preferred inhibitors are in Group II and the most preferred are the inhibitors of Group I.
MBP-C125 Assay: Two recombinantly-expressed proteins (FIG. 19 and FIG. 20) were used as substrates for β-secretase. The preferred substrate (FIG. 19) was expressed in E. coli as a fusion protein of the last 125 amino acids of APP fused to the carboxy-terminal end of maltose-binding protein (MBP), using commercially available vectors from New England Biolabs. […]
Recombinant proteins were generated with both the wild-type APP sequence (MBP-C125 WT) at the cleavage site ( . . . Val-Lys-Met-Asp-Ala . . . ). […] This amino-terminal fragment can be recognized on Western blots with the same Ab, or, quantitatively, using an anti-MBP capture-biotinylated SW-192 reporter sandwich format, as shown in FIG. 19. […]
Microtiter 96-well plates were coated with purified anti-MBP antibody (@ 5-μg/ml), followed by blocking with human serum albumin. […] Plates were read in a Cytofluor 2350 Fluorescent Measurement System. […]

Chain of β-secretase (P56817 46-501): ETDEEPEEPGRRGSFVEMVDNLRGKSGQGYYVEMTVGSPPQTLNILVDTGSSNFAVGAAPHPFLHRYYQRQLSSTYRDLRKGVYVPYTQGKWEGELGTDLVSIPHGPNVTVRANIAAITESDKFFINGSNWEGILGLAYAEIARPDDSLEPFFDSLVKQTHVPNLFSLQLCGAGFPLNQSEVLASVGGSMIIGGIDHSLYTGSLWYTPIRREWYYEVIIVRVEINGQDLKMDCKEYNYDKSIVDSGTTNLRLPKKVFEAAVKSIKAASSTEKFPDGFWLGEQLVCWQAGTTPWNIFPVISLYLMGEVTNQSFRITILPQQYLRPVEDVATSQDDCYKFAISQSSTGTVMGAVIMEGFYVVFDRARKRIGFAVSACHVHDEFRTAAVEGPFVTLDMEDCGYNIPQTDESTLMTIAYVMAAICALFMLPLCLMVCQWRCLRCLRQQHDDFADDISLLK

For `CSCC[C@H](NC(=O)[C@@H](NC(C)=O)C(C)C)C(=O)NC(CC(C)C)C(O)C(=O)N[C@H](C(=O)N[C@@H](C)C(=O)N[C@@H](CCC(=O)O)C(=O)N[C@@H](Cc1ccccc1)C(=O)O)C(C)C` (some centres unmarked) [Example 7P] (Ac-VM[X1]VAEF-OH), under “MBP C125 assay, heptamer peptides, read-out: IC50 Group”, the IC50 (usually the concentration that gives 50% inhibition) lay in the range of 1 to 10 µM.

As for “NH2-KTEEISEVNVAEF-COOH (H-KTEEISEVN[Sta]VAEF-OH) [P10-P4′sta D→V]”, the “inhibitor potency relative to the valine substitution alone” value (fold more potent than P1' valine substituted peptide) is listed as “about 100 times”.
